One assay concerns K. pneumoniae 10031. Nature of the assay: In vitro antibacterial activity (minimal inhibitory concentration, agar dilution). It is filed as cell-based. Here is the method:
(§1) The compounds have shown activity in vitro against one or more of the following strains of bacteria: S. aureus Smith, S. aureus 53-180, N. catarrhalis 8193, E. coli 9637, S. paratyphi 11737, K. pneumoniae 10031, or P. vulgaris 6896.
(§2) A stock solution or suspension of the test compound at a concentration of 2500 μg/ml. is prepared utilizing a suitable solvent or medium such as aqueous sodium hydroxide, aqueous lactic acid, methyl cellosolve, dimethylsulfoxide, dimethylacetamide, ethylene glycol, dimethylformamide, formamide, propylene glycol, acetone or methanol. Two-fold dilutions are made by adding appropriate amounts of sterile water to the solution or suspension of the test substance. One ml. quantities of each dilution are incorporated into Wellcotest Sensitivity Test Agar fortified with 5% hemolyzed horse blood (9 ml. vol.) in sterile Petri dishes to give plates containing varying concentrations of the test compound. The hardened surfaces of each plate are incubated with the test organism, and the plates are incubated for 18 hours at 35° C.

A further assay has as its system N. catarrhalis 8193. The description is as above. The assay is classed as cell-based. The conditions noted are these: Wellcotest Sensitivity Test Agar with 5% hemolyzed horse blood, 18 hours at 35° C. Here is the method:
as §1, §2

The test system of another assay is S. paratyphi 11737. The description is as above. It is filed as cell-based. The conditions noted are these: Salmonella enterica, Wellcotest Sensitivity Test Agar with 5% hemolyzed horse blood, 18 hours at 35° C. Here is the method: as §1, §2
The subject of another assay is S. aureus Smith. Described as above. It is filed as cell-based. The conditions noted are these: Staphylococcus aureus. Here is the method:
as §1, §2

The next assay deals with E. coli 9637. The assay is described as above. The assay is classed as cell-based. Here is the method:
as §1, §2

The test system of another assay is S. aureus 53-180. The description is as above. The assay is classed as cell-based. Here is the method: as §1, §2
The subject of the next assay is P. vulgaris 6896. The assay is described as above. The assay is classed as cell-based. Here is the method:
as §1, §2

For a further assay, the system named is bacterial infections. Nature of the assay: Potentiation of sulfa drug against bacterial infections in mice, oral. The assay is classed as in vivo, mouse. The conditions noted are these: oral route of administration in mice. How it is done:
The invention also provides compounds which will potentiate the antibacterial effects of sulfa drugs.
(§3) The test agent is weighed, suspended in 0.5% aqueous carboxymethyl cellulose, hemogenized (glass tissue grinder) and diluted according to the design of the experiment. Mice (male, 18±1 g., CD-1 strain) are pre-weighed, pooled, infected at random intraperitoneally with a 0.5 ml. standardized suspension (LD95 ±5%) of the bacterial organism in 5% gastric mucin and treated at random with single doses of the test agents either at the time of infection or six hours after infecting. The treated groups consist of ten mice per dosage level. Deaths are recorded daily for 14 days and the PD50 (mice are treated at time of infection) and CD50 (mice are treated six hours after infecting) values are calculated by the method of Reed and Muench [Amer. J. Hyg., 27, (1938)].

Assay [1] relates to Staphylococcus aureus CHP. Nature of the assay: In vivo antibacterial synergism with sulfomethoxazole (mouse protection test). Conditions: CD-1 mice; for ED50: po, single dose, alone, treated immediately after infecting, read-out: PD50. How it is done: as §3
The next assay concerns Escherichia coli (E-3). The description is as above. Conditions: E. coli (E-3), CD-1 mice; for ED50: Escherichia coli, po, single dose, alone, treated immediately after infecting, read-out: PD50. How it is done:
as §3

The test system of another assay is Escherichia coli (E-2). The assay is described as above. Conditions: E. coli (E-2), CD-1 mice; for ED50: Escherichia coli, po, single dose, alone, treated immediately after infecting, read-out: PD50. How it is done:
as §3

The mark [2] stands for this setting: Klebsiella pneumoniae, 10031, 18 h.
[3] abbreviates: Escherichia coli, E. coli 9637, Wellcotest Sensitivity Test Agar with 5% hemolyzed horse blood, 18 hours at 35° C., read-out: MIC.
Where [4] appears, read: Staphylococcus aureus, 53180, 18 h.
Where [5] appears, read: Klebsiella pneumoniae, K. pneumoniae 10031, Wellcotest Sensitivity Test Agar with 5% hemolyzed horse blood, 18 hours at 35° C., read-out: MIC.
Setting [6] is: S. aureus Smith, Wellcotest Sensitivity Test Agar with 5% hemolyzed horse blood, 18 hours at 35° C., read-out: MIC.
Setting [7] is: Proteus vulgaris, P. vulgaris 6896, Wellcotest Sensitivity Test Agar with 5% hemolyzed horse blood, 18 hours at 35° C., read-out: MIC.
Setting [8] is: Staphylococcus aureus, 53180, S. aureus 53-180, Wellcotest Sensitivity Test Agar with 5% hemolyzed horse blood, 18 hours at 35° C., read-out: MIC.
[9] abbreviates: p.o., Cpd. dose in combination with SM.
Where [10] appears, read: p.o., SM dose in combination with Cpd.

In brackets after ≈: the same amount, converted by molar mass. Like-named read-outs stand apart in the source and are kept apart here.

`Nc1nc(N)c2c(ccc3c2ccn3Cc2ccc(Cl)cc2Cl)n1` [Example 2, 7-[(2,4-Dichlorophenyl)methyl]-7H-pyrrolo[3,2-f]quinazoline-1,3-diamine]: the MIC (as a rule, the lowest concentration that inhibits growth of the organism) in the assay with K. pneumoniae 10031 (setting [2]) is 0.488 µg/mL (≈ 1.36 µM); with N. catarrhalis 8193, 0.0038 µg/mL (≈ 0.0106 µM); in the assay on S. paratyphi 11737, 31.3 µg/mL (≈ 87.4 µM); in the assay with S. aureus Smith (18 h) it was 0.976 µg/mL (≈ 2.72 µM); in the assay on E. coli 9637 (setting [3]), 3.9 µg/mL (≈ 10.9 µM); in the assay on S. aureus 53-180 (setting [4]), 0.488 µg/mL (≈ 1.36 µM).

As for `CC(=O)c1cccc(Cn2ccc3c4c(N)nc(N)nc4ccc32)c1` [Example 3], the MIC with K. pneumoniae 10031 (setting [5]) was found to be 0.031 µg/mL (≈ 0.0935 µM); in the assay on S. paratyphi 11737, 0.976 µg/mL (≈ 2.95 µM); in the assay on S. aureus Smith (setting [6]) it was 0.122 µg/mL (≈ 0.368 µM); in the assay with P. vulgaris 6896 (setting [7]), 3.9 µg/mL (≈ 11.8 µM); with E. coli 9637 (setting [3]) it was 0.244 µg/mL (≈ 0.736 µM); with S. aureus 53-180 (setting [8]) it was 0.061 µg/mL (≈ 0.184 µM).

As for `COC(=O)c1cccc(Cn2ccc3c4c(N)nc(N)nc4ccc32)c1` [Example 4], the MIC in the assay with K. pneumoniae 10031 (setting [5]) turned out to be 0.244 µg/mL (≈ 0.702 µM); in the assay on S. paratyphi 11737 it was 31.3 µg/mL (≈ 90.1 µM); with S. aureus Smith (18 h), 0.976 µg/mL (≈ 2.81 µM); in the assay on P. vulgaris 6896 (setting [7]) it was 125 µg/mL (≈ 360 µM); in the assay on E. coli 9637 (setting [3]) it was 1.95 µg/mL (≈ 5.61 µM); in the assay with S. aureus 53-180 (setting [8]), 0.122 µg/mL (≈ 0.351 µM).

Take `CC(C)OC(=O)c1ccc(Cn2ccc3c4c(N)nc(N)nc4ccc32)cc1` [Example 6]: the MIC stood at 0.488 µg/mL (≈ 1.3 µM) in the assay on K. pneumoniae 10031 (setting [2]); 0.122 µg/mL (≈ 0.325 µM) in the assay on N. catarrhalis 8193; 62.5 µg/mL (≈ 166 µM) in the assay with S. paratyphi 11737; 0.488 µg/mL (≈ 1.3 µM) against S. aureus Smith (18 h); 125 µg/mL (≈ 333 µM) in the assay on P. vulgaris 6896 (setting [7]); 15.6 µg/mL (≈ 41.6 µM) with E. coli 9637 (setting [3]). The compound further showed an MIC with S. aureus 53-180 (setting [4]) of 0.488 µg/mL (≈ 1.3 µM).

With `CCCC(C)OC(=O)c1ccc(Cn2ccc3c4c(N)nc(N)nc4ccc32)cc1` (stereo not drawn) [Example 7], the MIC amounted to 15.6 µg/mL (≈ 38.7 µM) in the assay with K. pneumoniae 10031 (setting [5]), 7.81 µg/mL (≈ 19.4 µM) against N. catarrhalis 8193, 15.6 µg/mL (≈ 38.7 µM) with S. aureus Smith (setting [6]) and 7.81 µg/mL (≈ 19.4 µM) in the assay with S. aureus 53-180 (setting [8]).

With `COC(=O)c1ccc(Cn2ccc3c4c(N)nc(N)nc4ccc32)cc1` [Example 8], the MIC with K. pneumoniae 10031 (setting [5]) was 15.6 µg/mL (≈ 44.9 µM); with S. paratyphi 11737, 250 µg/mL (≈ 720 µM); in the assay with S. aureus Smith (18 h), 31.3 µg/mL (≈ 90.1 µM); in the assay on P. vulgaris 6896 (Proteus vulgaris, 6896, 18 h), 250 µg/mL (≈ 720 µM); in the assay on E. coli 9637 (Escherichia coli, 9637, 18 h), 62.5 µg/mL (≈ 180 µM); against S. aureus 53-180 (setting [4]), 7.81 µg/mL (≈ 22.5 µM).

As to `Nc1nc(N)c2c(ccc3c2ccn3Cc2ccc(O)cc2)n1` [Example 9, 7-[(4-Hydroxyphenyl)methyl]-7H-pyrrolo[3,2-f]quinazoline-1,3-diamine], the MIC in the assay with K. pneumoniae 10031 (setting [5]) was found to be 0.244 µg/mL (≈ 0.799 µM); against S. paratyphi 11737, 3.9 µg/mL (≈ 12.8 µM); against S. aureus Smith (18 h), 0.488 µg/mL (≈ 1.6 µM); against P. vulgaris 6896 (Proteus vulgaris, 6896, 18 h), 250 µg/mL (≈ 819 µM); against E. coli 9637 (Escherichia coli, 9637, 18 h), 0.976 µg/mL (≈ 3.2 µM); with S. aureus 53-180 (setting [4]) it was 0.488 µg/mL (≈ 1.6 µM).

In the case of `Nc1nc(N)c2c(ccc3c2ccn3-c2ccncc2)n1` [Example 10, 7-(4-Pyridinyl)-7H-pyrrolo-[3,2-f]quinazoline-1,3-diamine], in the assay with bacterial infections, the “synergistic effect with sulfamethoxazole against bacterial infections” value is given as “gave a synergistic effect with sulfamethoxazole against bacterial infections”. Further, the “PD50 of Cpd. in combination SM/Cpd.” value in [1] (setting [9]) is 7.28 mg. per kg; with Escherichia coli (E-3) (setting [9]), 6.25 mg. per kg; with Escherichia coli (E-2) (setting [9]) it was 1.20 mg. per kg. For the same compound, the ED50 in assay [1] is above 400 mg/kg; in the assay on Escherichia coli (E-3) it was 313 mg/kg; with Escherichia coli (E-2) it was above 400 mg/kg. In addition, the minimum inhibitory concentration (MIC) in the assay with K. pneumoniae 10031 (setting [2]) is 0.976 µg/mL (≈ 3.53 µM); in the assay with N. catarrhalis 8193, 0.0152 µg/mL (≈ 0.055 µM); against S. paratyphi 11737 it was 0.976 µg/mL (≈ 3.53 µM); in the assay on S. aureus Smith (setting [6]), 0.448 µg/mL (≈ 1.62 µM); in the assay on P. vulgaris 6896 (Proteus vulgaris, 6896, 18 h), 62.5 µg/mL (≈ 226 µM); with E. coli 9637 (setting [3]), 0.244 µg/mL (≈ 0.883 µM). Besides, in the assay with S. aureus 53-180 (setting [8]), the MIC was determined as 0.224 µg/mL (≈ 0.811 µM).

With `Cc1ccnc(-n2ccc3c4c(N)nc(N)nc4ccc32)c1` [Example 11], the MIC with K. pneumoniae 10031 (setting [5]) stood at 0.244 µg/mL (≈ 0.84 µM); in the assay with N. catarrhalis 8193, 0.0152 µg/mL (≈ 0.0524 µM); with S. paratyphi 11737 it was 7.81 µg/mL (≈ 26.9 µM); against S. aureus Smith (18 h), 3.9 µg/mL (≈ 13.4 µM); in the assay with P. vulgaris 6896 (setting [7]) it was 15.6 µg/mL (≈ 53.7 µM); with E. coli 9637 (setting [3]) it was 3.9 µg/mL (≈ 13.4 µM). The MIC in the assay with S. aureus 53-180 (setting [4]) was found to be 0.976 µg/mL (≈ 3.36 µM).

With `Nc1nc(N)c2c(ccc3c2ccn3-c2ccc(C(F)(F)F)cc2)n1` [Example 12], the MIC with K. pneumoniae 10031 (setting [5]) was 3.9 µg/mL (≈ 11.4 µM); against S. aureus Smith (18 h), 31.3 µg/mL (≈ 91.2 µM); against E. coli 9637 (Escherichia coli, 9637, 18 h), 250 µg/mL (≈ 728 µM); in the assay with S. aureus 53-180 (setting [4]), 31.3 µg/mL (≈ 91.2 µM).

For the compound `NC(=O)c1ccc(-n2ccc3c4c(N)nc(N)nc4ccc32)cc1` [Example 13], the values for the MIC with K. pneumoniae 10031 (setting [5]), in the assay with S. aureus Smith (setting [6]) and in the assay with S. aureus 53-180 (setting [4]) were 0.976 µg/mL (≈ 3.07 µM), 1.95 µg/mL (≈ 6.13 µM) and 7.81 µg/mL (≈ 24.5 µM), respectively.

In the case of `Cc1cc(NS(=O)(=O)c2ccc(N)cc2)no1` [SM, sulfomethoxazole, reference compound], the “PD50 of SM in combination SM/Cpd.” value in [1] (setting [10]) is 50 mg. per kg; in the assay with Escherichia coli (E-3) (setting [10]) it was 12.5 mg. per kg; with Escherichia coli (E-2) (setting [10]), 5.25 mg. per kg. Besides, the ED50 in [1] stood at 259 mg/kg; in the assay on Escherichia coli (E-3), 28.1 mg/kg; with Escherichia coli (E-2), 25 mg/kg.

The values are drawn from patent publication US4208520A, “7-(Substituted)-7H-pyrrolo[3,2-f]quinazoline-1,3-diamines” (American Home Products Corporation, priority 1978, dated 1980).
